# From article PMC9454270, “Peptidomimetic Small-Molecule Inhibitors of 3CLPro Activity and Spike–ACE2 Interaction: Toward Dual-Action Molecules against Coronavirus Infections” (The Journal of Organic Chemistry, 2022)
# *1 amine or outer side, *2 acyl side, *3 side chain or, on linkers, in order; H or OH if unused. Where a SMILES comes first, the peptide text is derived from it. [ ]: non-standard residue; d: D form. X1 = O=C1CCN([*:1])CCN1[C@@H](Cc1ccccc1)C(=O)[*:2]
# Experiments:
# [1] = biological target: T1, 3CLPro enzyme, the main protease of SARS-CoV-2 (Severe acute respiratory syndrome coronavirus 2, UniProt P0DTD1); assay: biochemical; format: biochemical; settings: for % In(3CLPro) at 100 μM: pH 7
# T1 construct: 3CLPro enzyme, the main protease of SARS-CoV-2
# SARS-CoV-2 infection = settings: cited from earlier work
# [2] = biological target: SARS-CoV-2 spike/ACE2 complex (RBD of Spike S protein binding to human receptor ACE2) (Severe acute respiratory syndrome coronavirus 2, UniProt P0DTC2); assay: biochemical; parameters: species or system SARS-CoV-2 / human
Compound,IC50 [1] [µM],% In(3CLPro) at 100 μM [1],inhibition potency toward SARS-CoV-2 infection (SARS-CoV-2 infection),% In(spike–ACE2) at 100 μM [2],IC50 [2] [µM]
"NC(=O)CC[C@H](NC(=O)[C@H](Cc1ccc(O)cc1)NC(=O)[C@H](Cc1ccccc1)N1CCN(C(=O)[C@H](CC(=O)O)NC(=O)[C@@H](N)CCC(=O)O)CC1=O)C(N)=O [compound 15, H-ED(4b)YQ-NH2]",15,90–91%,,,
H-EDLFYQ-NH2 [EDLFYQ (SAP-6)],,,millimolar range,,
"NC(=O)CC[C@H](NC(=O)[C@H](Cc1ccc(O)cc1)NC(=O)[C@H](Cc1ccccc1)N1CCN(C(=O)[C@H](CC(=O)O)NC(=O)[C@@H](N)CCC(=O)O)CCC1=O)C(N)=O [compound 16, H-ED(11b)YQ-NH2] (H-ED[X1]YQ-NH2)",127,45–57%,,66–76%,20
